pKi: −log10 of the molar value. Counter-ions that a name gives are not always drawn.
Tests used:
[1] = target: T1, serotonin 1A receptor (Rattus norvegicus, UniProt P19327); experiment: Binding test on [3H] 8-hydroxy-dipropylaminotetralin, hippocampus receptor fraction; design: species or system SD rats; details: rat hippocampus receptor fraction, 0.5 nM [3H] 8-OH-DPAT, room temperature 30 min; read-out: 5HT1
T1 construct: To the receptor fraction of the hippocampus were added a test compound and 0.5 nM of [^3H]; 8-hydroxy-dipropylaminotetralin; from tissue; host or cells: rat hippocampus membrane fraction
T1 sequence (P19327 1-422): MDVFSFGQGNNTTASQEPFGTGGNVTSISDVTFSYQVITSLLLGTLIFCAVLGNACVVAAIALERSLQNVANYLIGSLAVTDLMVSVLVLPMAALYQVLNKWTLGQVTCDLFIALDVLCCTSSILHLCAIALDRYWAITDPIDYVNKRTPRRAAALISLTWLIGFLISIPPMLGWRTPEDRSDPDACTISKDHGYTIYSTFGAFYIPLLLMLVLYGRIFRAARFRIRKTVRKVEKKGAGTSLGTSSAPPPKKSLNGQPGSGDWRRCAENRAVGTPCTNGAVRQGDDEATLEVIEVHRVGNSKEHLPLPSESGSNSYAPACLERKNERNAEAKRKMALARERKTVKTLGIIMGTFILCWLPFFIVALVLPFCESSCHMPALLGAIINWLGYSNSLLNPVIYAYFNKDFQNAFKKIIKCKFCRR

[2] = target: T2, serotonin 2 receptor (Rattus norvegicus, UniProt P14842); experiment: Binding test on [3H] ketanserin, cerebral cortex receptor fraction; design: species or system SD rats; details: 0.3 nM [3H] ketanserin, 37° C. 15 min, read-out: 5HT2
T2 construct: To the receptor fraction of the cerebral cortex were added a test compound and 0.3 nM of [^3H] ketanserin; from tissue; host or cells: rat cerebral cortex membrane fraction
T2 sequence (P14842 whole entry): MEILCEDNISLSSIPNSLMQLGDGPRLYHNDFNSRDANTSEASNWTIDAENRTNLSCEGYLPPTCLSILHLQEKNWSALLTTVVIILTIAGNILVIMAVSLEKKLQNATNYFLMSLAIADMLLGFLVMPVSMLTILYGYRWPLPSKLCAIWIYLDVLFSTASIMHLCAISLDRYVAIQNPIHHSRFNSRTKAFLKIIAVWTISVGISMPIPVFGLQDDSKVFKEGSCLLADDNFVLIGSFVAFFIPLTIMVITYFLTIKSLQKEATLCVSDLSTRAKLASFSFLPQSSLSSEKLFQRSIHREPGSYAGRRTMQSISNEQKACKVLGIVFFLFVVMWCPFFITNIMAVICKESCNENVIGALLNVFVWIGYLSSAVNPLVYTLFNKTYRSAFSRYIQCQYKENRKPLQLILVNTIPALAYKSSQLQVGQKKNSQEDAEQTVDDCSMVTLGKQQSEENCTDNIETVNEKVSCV

SMILES | pKi [1] | pKi [2]
CCN1CCN(c2nc(-c3ccc(C(C)(C)CCO)cc3)cc3ccccc23)CC1 [Example 390, Oxalate] | 8.12 | 7.95
CCN1CCN(c2nc(-c3ccc(CO)c(CO)c3)cc3ccccc23)CC1 [Example 394, 1-(4-Ethylpiperazin-1-yl)-3-[(3,4-Dihydroxymethyl)Phenyl]Isoquinoline Dihydrochloride] | 7.97 | 7.48
CCN1CCN(c2nc(-c3ccnc(OC)c3)cc3ccccc23)CC1 [Example 405, 1-(4-ethylpiperazin-1-yl)-3-(2-methoxypyridin-4-yl)isoquinoline] | 7.65 | 7.99
CCN1CCN(c2nc(-c3ccnc(OCCOC)c3)cc3ccccc23)CC1 [Example 407, 1-(4-ethylpiperazin-1-yl)-3-[2-(2-methoxyethoxy)pyridin-4-yl]isoquinoline] | 7.75 | 7.58
CCN1CCN(c2nc(-c3ccc(C(N)=O)cc3)cc3ccccc23)CC1 [Example 408, 1-(4-ethylpiperazin-1-yl)-3-(4-carbamoylphenyl)isoquinoline] | 7.70 | 7.44
CCN1CCN(c2nc(-c3ccc(C(O)C4CCCCC4)cc3)cc3ccccc23)CC1 (centres unmarked) [Example 409, 1-(4-ethylpiperazin-1-yl)-3-[4-(cyclohexylhydroxymethyl)phenyl]isoquinoline] | 7.79 | 8.01
CCN1CCN(c2nc(-c3ccc(C4(O)CCOCC4)cc3)cc3ccccc23)CC1 [Example 410, 1-(4-ethylpiperazin-1-yl)-3-[4-(4-hydroxytetrahydropyran-4-yl)phenyl]isoquinoline] | 7.68 | 8.68
CCN1CCN(c2nc(-c3ccc(C(O)c4nccs4)cc3)cc3ccccc23)CC1 (centres unmarked) [Example 412, 1-(4-ethylpiperazin-1-yl)-3-[4-(1,3-thiazol-2-yl)hydroxymethylphenyl]isoquinoline] | 7.72 | 7.38
CCN1CCN(c2nc(-c3ccc4c(c3)CCC4O)cc3ccccc23)CC1 (centres unmarked) [Example 415, 1-(4-ethylpiperazin-1-yl)-3-(1-hydroxyindan-5-yl)isoquinoline] | 8.44 | 7.94
CCN1CCN(c2nc(-c3ccc(OCCO)c(C#N)c3)cc3ccccc23)CC1 [Example 417, 1-(4-ethylpiperazin-1-yl)-3-[3-cyano-4-(2-hydroxyethoxy)phenyl]isoquinoline] | 7.87 | 8.35
CCN1CCN(c2nc(-c3cccc(CCCO)c3)cc3ccccc23)CC1 [Example 418, 1-(4-ethylpiperazin-1-yl)-3-[3-(3-hydroxypropyl)phenyl]isoquinoline] | 7.26 | 7.76
CCN1CCN(c2nc(Cc3ccccc3)cc3ccccc23)CC1 [Example 419, 1-(4-ethylpiperazin-1-yl)-3-benzylisoquinoline] | 7.02 | 7.79
CCN1CCN(c2nc(CC(O)c3ccccc3)cc3ccccc23)CC1 (centres unmarked) [Example 420, 1-(4-ethylpiperazin-1-yl)-3-(2-hydroxy-2-phenylethyl)isoquinoline] | 6.93 | 7.65

The remaining lines, values ahead:

pKi [1] | pKi [2] | SMILES
7.56 | 10.00 | CCCNC(=O)c1ccc(-c2cc3ccccc3c(N3CCN(CC)CC3)n2)cc1F [Example 384, 1-(4-Ethylpiperazin-1-yl)-3-[4-(N-Propylcarbamoyl)-3-Fluorophenyl]Isoquinoline Dihydrochloride]
7.83 | 7.67 | CCN1CCN(c2nc(-c3ccc(CCO)c(F)c3)cc3ccccc23)CC1 [Example 385, 1-(4-Ethylpiperazin-1-yl)-3-[3-Fluoro-4-(2-Hydroxyethyl)Phenyl]Isoquinoline Dihydrochloride]
8.05 | 8.62 | CCN1CCN(c2nc(-c3ccc(CC(C)CO)cc3)cc3ccccc23)CC1 (centres unmarked) [Example 386, 1-(4-Ethylpiperazin-1-yl)-3-[4-(3-Hydroxy-2-Methylpropyl)Phenyl]Isoquinoline Oxalate]
7.60 | 7.61 | CCN1CCN(c2nc(-c3ccc(C(O)CO)cc3)cc3ccccc23)CC1 (centres unmarked) [Example 387, 1-(4-Ethylpiperazin-1-yl)-3-[4-(1,2-Dihydroxyethyl)Phenyl]Isoquinoline Dihydrochloride]
7.67 | 9.15 | CCN1CCN(c2nc(-c3ccc(CCC(C)(C)O)cc3)cc3ccccc23)CC1 [Example 388, 1-(4-Ethylpiperazin-1-yl)-3-[4-(3-Hydroxy-3-Methylbutyl)Phenyl]Isoquinoline Dihydrochloride]
7.85 | 8.14 | CCN1CCN(c2nc(-c3ccc(CC(C)(C)CO)cc3)cc3ccccc23)CC1 [Example 389, 1-(4-Ethylpiperazin-1-yl)-3-[4-(3-Hydroxy-2,2-Dimethylpropyl)Phenyl]Isoquinoline Oxalate]
8.44 | 7.89 | CCN1CCN(c2nc(-c3ccc(C(O)C(C)(C)CO)cc3)cc3ccccc23)CC1 (centres unmarked) [Example 391, 1-(4-Ethylpiperazin-1-yl)-3-[4-(1,3-Dihydroxy-2,2-Dimethylpropyl)Phenyl]Isoquinoline Dihydrochloride]
7.43 | 8.32 | CCN1CCN(c2nc(-c3ccc(C4COCCO4)cc3)cc3ccccc23)CC1 (centres unmarked) [Example 395, 1-(4-Ethylpiperazin-1-yl)-3-[4-(1,4-Dioxan-2-yl)Phenyl]Isoquinoline Dihydrochloride]
7.30 | 8.59 | CCN1CCN(c2nc(-c3ccc(C4CCCO4)cc3)cc3ccccc23)CC1 (centres unmarked) [Example 396, 1-(4-Ethylpiperazin-1-yl)-3-[4-(Tetrahydrofuran-2-yl)Phenyl]Isoquinoline Dihydrochloride]
7.27 | 9.05 | CCN1CCN(c2nc(-c3ccc([C@H]4CC[C@@H](O)CC4)cc3)cc3ccccc23)CC1 [Example 397, 1-(4-Ethylpiperazin-1-yl)-3-[4-(cis-4-Hydroxycyclohexyl)Phenyl]Isoquinoline Dihydrochloride]
8.10 | 8.23 | CCN1CCN(c2nc(-c3ccc([C@H]4CC[C@H](O)CC4)cc3)cc3ccccc23)CC1 [Example 398, 1-(4-Ethylpiperazin-1-yl)-3-[4-(trans-4-Hydroxycyclohexyl)Phenyl]Isoquinoline Dihydrochloride]
7.28 | 7.76 | CCN1CCN(c2nc(-c3ccc(CC4CCOCC4)cc3)cc3ccccc23)CC1 [Example 399, 1-(4-Ethylpiperazin-1-yl)-3-[4-(tetrahydropyran-4-yl)Methylphenyl]Isoquinoline Dihydrochloride]
7.55 | 9.11 | CCN1CCN(c2nc(-c3ccc(OC[C@@H](C)O)cc3)cc3ccccc23)CC1 [Example 403, 1-(4-ethylpiperazin-1-yl)-3-[4-(2-hydroxypropoxy)phenyl]isoquinoline Dihydrochloride]
7.73 | 8.97 | CCN1CCN(c2nc(-c3ccc(O[C@@H](C)CO)cc3)cc3ccccc23)CC1 [Example 404, 1-(4-ethylpiperazin-1-yl)-3-[4-(2-hydroxy-1-methylethoxy)phenyl]isoquinoline Dihydrochloride]
7.76 | 8.38 | CCN1CCN(c2nc(-c3ccc4c(c3)CCC4=O)cc3ccccc23)CC1 [Example 414, 1-(4-ethylpiperazin-1-yl)-3-(1-indanon-5-yl)isoquinoline]
